The NIST ThermoML archive (doi:10.1021/acs.jced.6b00261)

Details: Liquid, Frequency=8 MHz, Pulse-echo method

C[Si]1(C)O[Si](C)(C)O[Si](C)(C)O[Si](C)(C)O1 [octamethylcyclotetrasiloxane]
Details	speed of sound [m/s]
299.67 K, 14920 kPa	1006.8
299.79 K, 130 kPa	911.09
299.8 K, 520 kPa	913.77
299.81 K, 980 kPa	916.96
299.81 K, 1500 kPa	920.51
299.82 K, 1980 kPa	923.9
299.83 K, 3440 kPa	933.79
299.85 K, 6010 kPa	950.89
300.15 K, 10240 kPa	978.63
349.96 K, 26230 kPa	939.02
349.98 K, 14970 kPa	866.97
350 K, 10200 kPa	832.31
350.03 K, 6210 kPa	800.86
350.04 K, 1960 kPa	764.8
350.04 K, 3530 kPa	778.49
350.05 K, 960 kPa	755.62
350.05 K, 1480 kPa	760.43
350.06 K, 530 kPa	751.64
350.07 K, 120 kPa	747.75
350.35 K, 22660 kPa	915.86
399.62 K, 19680 kPa	784.97
399.63 K, 15100 kPa	749.46
399.64 K, 6070 kPa	667.98
399.64 K, 10120 kPa	706.83
399.68 K, 3610 kPa	641.86
399.69 K, 19290 kPa	782.02
399.7 K, 510 kPa	605.91
399.7 K, 1030 kPa	612.25
399.7 K, 1460 kPa	617.43
399.7 K, 2040 kPa	624.18
399.71 K, 120 kPa	600.99
449.63 K, 960 kPa	475.36
449.64 K, 130 kPa	461.18
449.64 K, 500 kPa	467.67
449.69 K, 1960 kPa	491.86
449.7 K, 1490 kPa	484.22
449.77 K, 3600 kPa	516.36
449.87 K, 5900 kPa	547.45
450 K, 10040 kPa	596.17
450.19 K, 15080 kPa	646.97
450.23 K, 16420 kPa	659.13
499.88 K, 3480 kPa	398.42
499.88 K, 6030 kPa	444.06
499.91 K, 2030 kPa	367.4
499.92 K, 330 kPa	321.35
499.92 K, 1490 kPa	354.75
499.93 K, 11150 kPa	515.95
499.94 K, 520 kPa	329.04
500 K, 10650 kPa	509.56
549.54 K, 5510 kPa	338.9
549.55 K, 5070 kPa	329.01
549.56 K, 4550 kPa	317.1
549.61 K, 3880 kPa	300.55
549.97 K, 6640 kPa	364.29
